Reference: PubChem BioAssay (NCI)
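The compound was tested at five concentrations on cells cultured in 96-well plates, with a 48-hour exposure period. Abbreviation: GI50, concentration required for 50% inhibition of growth. TGI denotes the concentration required for complete inhibition of growth.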

Legend:
Test in all cases: DTP human tumour cell line panel, 48 h
[1] = test system: OVCAR-3 ovarian
[2] = test system: SW-620 colon
[3] = test system: UACC-257 melanoma
[4] = test system: U251 CNS
[5] = test system: NCI-H23 lung
[6] = test system: HOP-92 NSCLC
[7] = test system: HOP-62 NSCLC
[8] = test system: MCF7 breast
[9] = test system: UACC-62 melanoma
[10] = test system: A549 NSCLC
[11] = test system: SR leukemia
[12] = test system: HT29 colon
[13] = test system: A498 renal
[14] = test system: SF-268 CNS
[15] = test system: CAKI-1 renal
[16] = test system: T-47D breast
[17] = test system: HS 578T breast
[18] = test system: DU-145 prostate
[19] = test system: COLO 205 colon
[20] = test system: NCI/ADR-RES ovarian
[21] = test system: SF-295 CNS
[22] = test system: HL-60(TB) leukemia
[23] = test system: SNB-75 CNS
[24] = test system: BT-549 breast
[25] = test system: M14 melanoma
[26] = test system: PC-3 prostate
[27] = test system: MOLT-4 leukemia
[28] = test system: NCI-H522 lung
[29] = test system: HCC-2998 colon
[30] = test system: EKVX NSCLC
[31] = test system: OVCAR-8 ovarian
[32] = test system: RXF 393 renal
[33] = test system: SK-MEL-2 melanoma
[34] = test system: OVCAR-5 ovarian
[35] = test system: 786-0 renal
[36] = test system: SNB-19 CNS
[37] = test system: TK-10 renal
[38] = test system: MALME-3M melanoma
[39] = test system: KM12 colon
[40] = test system: OVCAR-4 ovarian
[41] = test system: CCRF-CEM leukemia
[42] = test system: SK-OV-3 ovarian
[43] = test system: UO-31 renal
[44] = test system: ACHN renal
[45] = test system: SK-MEL-5 melanoma
[46] = test system: NCI-H460 lung
[47] = test system: LOX IMVI melanoma
[48] = test system: SN12C renal
[49] = test system: MDA-MB-435
[50] = test system: HCT-116 colon
[51] = test system: RPMI-8226 leukemia
[52] = test system: SK-MEL-28 melanoma
[53] = test system: K-562 leukemia
[54] = test system: HCT-15 colon
[55] = test system: SF-539 CNS
[56] = test system: NCI-H226 lung
[57] = test system: IGROV1 ovarian
[58] = test system: MDA-MB-231 breast

SMILES: COc1cnc2c(c1)C(=O)c1c-2n(CCCNCC2CC2)c(=O)c2cc(F)ccc12
- GI50 [1]: 1110 nM
- TGI [1]: 3800 nM
- GI50 [2]: 227 nM
- TGI [2]: 1860 nM
- GI50 [3]: 1780 nM
- TGI [3]: 5240 nM
- GI50 [4]: 346 nM
- TGI [4]: 2360 nM
- GI50 [5]: 577 nM
- TGI [5]: 1950 nM
- GI50 [6]: 1750 nM
- TGI [6]: 7360 nM
- GI50 [7]: 380 nM
- TGI [7]: 2150 nM
- GI50 [8]: 76.6 nM
- TGI [8]: 1350 nM
- GI50 [9]: 561 nM
- TGI [9]: 2260 nM
- GI50 [10]: 262 nM
- TGI [10]: 1550 nM
- GI50 [11]: 117 nM
- TGI [11]: 1790 nM
- GI50 [12]: 495 nM
- TGI [12]: 2100 nM
- GI50 [13]: 969 nM
- TGI [13]: 4110 nM
- GI50 [14]: 1060 nM
- TGI [14]: 8000 nM
- GI50 [15]: 216 nM
- TGI [15]: 1830 nM
- GI50 [16]: 488 nM
- TGI [16]: 3100 nM
- GI50 [17]: 2490 nM
- TGI [17]: 13900 nM
- GI50 [18]: 475 nM
- TGI [18]: 2440 nM
- GI50 [19]: 570 nM
- TGI [19]: 3480 nM
- GI50 [20]: 609 nM
- TGI [20]: 3520 nM
- GI50 [21]: 295 nM
- TGI [21]: 1680 nM
- GI50 [22]: 199 nM
- TGI [22]: 1680 nM
- GI50 [23]: 480 nM
- TGI [23]: 3300 nM
- GI50 [24]: 1110 nM
- TGI [24]: 3880 nM
- GI50 [25]: 736 nM
- TGI [25]: 3080 nM
- GI50 [26]: 760 nM
- TGI [26]: 4930 nM
- GI50 [27]: 77.1 nM
- TGI [27]: 8900 nM
- GI50 [28]: 275 nM
- TGI [28]: 1740 nM
- GI50 [29]: 715 nM
- TGI [29]: 2580 nM
- GI50 [30]: 1510 nM
- TGI [30]: 5640 nM
- GI50 [31]: 801 nM
- TGI [31]: 3830 nM
- GI50 [32]: 855 nM
- TGI [32]: 2590 nM
- GI50 [33]: 3680 nM
- TGI [33]: 8400 nM
- GI50 [34]: 1020 nM
- TGI [34]: 3070 nM
- GI50 [35]: 386 nM
- TGI [35]: 1380 nM
- GI50 [36]: 453 nM
- TGI [36]: 3890 nM
- GI50 [37]: 1560 nM
- TGI [37]: 4660 nM
- GI50 [38]: 1030 nM
- TGI [38]: 3150 nM
- GI50 [39]: 1400 nM
- TGI [39]: 5730 nM
- GI50 [40]: 1590 nM
- TGI [40]: 3670 nM
- GI50 [41]: 190 nM
- TGI [41]: 4610 nM
- GI50 [42]: 939 nM
- TGI [42]: 2580 nM
- GI50 [43]: 304 nM
- TGI [43]: 1590 nM
- GI50 [44]: 191 nM
- TGI [44]: 717 nM
- GI50 [45]: 1140 nM
- TGI [45]: 2650 nM
- GI50 [46]: 104 nM
- TGI [46]: 800 nM
- GI50 [47]: 206 nM
- TGI [47]: 923 nM
- GI50 [48]: 297 nM
- TGI [48]: 2690 nM
- GI50 [49]: 1210 nM
- TGI [49]: 3980 nM
- GI50 [50]: 284 nM
- TGI [50]: 1400 nM
- GI50 [51]: 474 nM
- TGI [51]: 2870 nM
- GI50 [52]: 1820 nM
- TGI [52]: 4570 nM
- GI50 [53]: 229 nM
- TGI [53]: 14500 nM
- GI50 [54]: 402 nM
- TGI [54]: 1810 nM
- GI50 [55]: 581 nM
- TGI [55]: 1920 nM
- GI50 [56]: 751 nM
- TGI [56]: 2020 nM
- GI50 [57]: 641 nM
- TGI [57]: 4330 nM
- GI50 [58]: 943 nM
- TGI [58]: 3440 nM
